Source: a melting point compilation (Tetko et al.; mined from patent text by program, amines drawn as free bases though some values may be those of a salt)

| SMILES | melting point |
| --- | --- |
| Cc1ccc(S(=O)(=O)c2cn(C(=O)OC(C)(C)C)c3cc(-c4ccc(F)cc4)ccc23)cc1 | 135 °C |
| Cn1nc(-c2ccc(C(=O)N3CCN(C4CCCC4)CC3)cc2)ccc1=O | 177 to 179 °C |
| CC(C)(C)OC(=O)Cn1c(C(=O)OCc2ccccc2)cc2ccccc21 | 95 to 96 °C |
| COc1cc(C(C)=O)cc(Br)c1Oc1nc(C)nc(N2CCOCC2)n1 | 159 to 162 °C |
| CC(=O)OC1COC(N=[N+]=[N-])C(OC(C)=O)C1OC(C)=O (stereo not drawn) | 76 °C |
| CCOC(=O)NN=COC(N)CC (stereo not drawn) | 100 °C |
| CCCCNc1c2c(nc3c1cnn3CC)C(=O)c1ccccc1CC2 | 181 to 183 °C |
| CCOC(=O)C1=C(C)NC(c2nccn2Cc2ccccc2)=NC1c1ccc(F)cc1Cl (stereo not drawn) | 114 to 117 °C |
| Cc1cc(=O)[nH]c2cc(OCCCN3CCN(C(c4ccccc4)c4ccccc4)CC3)ccc12 | 208 to 210 °C |
| NS(=O)(=O)c1ccc(NN=C2C(=O)Nc3cc4c(cc32)OCO4)cc1 | > 220 °C |
| O=c1c(NCCCO)c(Cl)cnn1COCc1ccccc1 | 54 to 56 °C |
| O=C(N[C@H]1CCN(C(=O)c2cc(C(F)(F)F)cc(C(F)(F)F)c2)[C@H](Cc2ccc(Cl)cc2)C1)c1cc(=O)c2ccccc2o1 | 169 to 170 °C |
| Nc1nc2c(s1)CCN(CC=Cc1cccc(Cl)c1)CC2 | 132 to 136 °C |
| CCc1nc2cc(Cl)c(Cl)cc2n1C1CC(CO)C(O)C1O (stereo not drawn) | 191 to 193 °C |
| CCOC(=O)c1cn(C2CC2)c2nc(N3CCC(N)C3)c(F)cc2c1=O (stereo not drawn) | 144 to 146 °C |
| CNc1c(F)cccc1C(C)=O | 26 to 28 °C |
| [N-]=[N+]=Nc1ccnc2c(NC(=O)c3c(Cl)cccc3Cl)cccc12 | 188 to 193 °C |
| CC(C)(C)OC(=O)N1CCC(c2ccc(C(=O)N3CCc4cc(S(C)(=O)=O)ccc43)nc2)CC1 | 202 to 205 °C |
| N#CCOc1nsc2ccc(-n3c(=O)cc(C(F)(F)F)[nH]c3=O)cc12 | 254 to 258 °C |
| CCC(C)CC1OC(CC(=O)Nc2ccc(F)c(CCC(=O)O)c2)C(=O)N(CC(C)(C)CO)c2ccc(Cl)cc21 (stereo not drawn) | 123 to 125 °C |
| FC(F)(F)CNc1ccc2c(c1)N1CCN=C1S2 | 212 °C |
| C#Cc1cc(Nc2ncnc3cnc(N)cc23)ccc1F | 218 to 222 °C |
| Cc1cc(-c2nc3cc(F)cc(F)c3c(=O)[nH]2)cc(C)c1OCCN1CCCC1 | 234 to 235 °C |
| Cc1nc(N)c2nc(CO)n(NCc3cccnc3)c2c1C | 258 to 260 °C |

| SMILES | melting point |
| --- | --- |
| N#CN=C(Nc1cnc(Cl)c(N)c1)NC1(c2ccccc2)CCC1 | 220 to 221 °C |
| Cn1c(-c2ccc3ccccc3c2)nnc1S(C)(=O)=O | 204 to 206 °C |
| Fc1cccc(F)c1-c1nn(-c2ccccc2C(F)(F)F)c(=S)o1 | 128 to 130 °C |
| CC(C)(C)c1cc(C=Cc2n[nH]c(=S)o2)cc(C(C)(C)C)c1O | 210 °C |
| CCCCC(O)c1nc2c(C(F)(F)F)cccc2c(O)c1C(=O)Nc1nccs1 (stereo not drawn) | 190 °C |
| Cc1cc(C(=O)NCC(N)=O)cc(-c2cccc3cc(Cc4cccc(C(F)(F)F)c4)sc23)n1 | 183 to 184 °C |
| O=C(O)CCCCCCCCn1c(-c2ccccc2)nc(-c2ccccc2)c1-c1ccccc1 | 149 to 150 °C |
| NCCC1(O)CCc2ccccc2C12CCCC2 (stereo not drawn) | 107 to 109 °C |
| Cc1[nH]cnc1CSCCN=C(N)N | 141 to 142 °C |
| COC(=O)c1cccc2c1-c1ccc3c(c1C(c1ccccc1)O2)C(C)=CC(C)(C)N3 (stereo not drawn) | 150 to 152 °C |
| COCCNc1sc(-c2cc[nH]n2)c2c1C(=O)CC(C)(C)C2 | 171 to 173 °C |
| Cc1cc(-c2ccc(C(F)(F)F)cc2)cc(-c2ccnc(-c3ccc(S(N)(=O)=O)s3)c2)n1 | > 250 °C |
| Cc1ccc(CCCNCC(O)c2cc3ccccc3o2)cc1 (stereo not drawn) | 118 to 119 °C |
| CCOc1c(O)nc(-c2ccc(Cl)c(OC)c2F)nc1C(=O)OC | 173 to 175 °C |
| O=C(c1cc2ccnc(Cl)c2[nH]1)N1CCCC1 | 152 to 154 °C |
| COc1cc2ncnc(NC3=CC(=O)C4(c5ccccc5)OC4C3=O)c2cc1OC (stereo not drawn) | 252 to 253 °C |
| CC(C)(C)c1ccc(CC(=O)CCCC2CCCCC2)cc1NC(=O)CC1c2ccccc2Oc2ccccc21 | 146 to 147 °C |
| COCC#CCCCCC12OCC(C(C)(C)C)(CO1)CO2 | 47 to 49 °C |
| O=C(Nc1ccc(Cl)c(C(F)(F)F)c1)N1COc2cc(Oc3ccnc(Cl)n3)ccc21 | 140 to 142 °C |
| CC(C)c1ccc2c(c1)OCc1ccc(C#N)cc1C2=O | 101 to 108 °C |
| CC(C)(C)OC(=O)Nc1ccoc1C(N)=O | 140 to 143 °C |
| CCCC12CCC3C4=C(CCC3C1CCC2O)CC(OC)=CC4 (stereo not drawn) | 153 to 156 °C |
| CNc1c(S(=O)C(F)(F)F)c(C#N)nn1-c1c(Cl)cc(C(F)(F)F)cc1Cl (stereo not drawn) | 227 °C |
| CCOC(=O)c1c(C(F)(F)F)nc(C(F)(F)F)c(C)c1OCC | 72.5 to 74 °C |
